Data: ChEMBL document CHEMBL1138645, “Carbonic anhydrase inhibitors. Interaction of isozymes I, II, IV, V, and IX with phosphates, carbamoyl phosphate, and the phosphonate antiviral drug foscarnet” (Bioorg Med Chem Lett, 2004)

Experiments:
[1] = molecular target: T1, Carbonic anhydrase 1 (Homo sapiens, UniProt P00915); assay: Inhibition constant of anion against human carbonic anhydrase isozyme hCA I; A = activator
[2] = molecular target: Carbonic anhydrase V (Homo sapiens, UniProt Q9Y2D0+P35218); assay: Inhibition constant of anion against human carbonic anhydrase isozyme hCA V; assay type: protein assay
[3] = molecular target: Carbonic anhydrase 2 (Homo sapiens, UniProt P00918); assay: Inhibition constant of anion against human carbonic anhydrase isozyme hCA II
[4] = molecular target: Carbonic anhydrase 4 (Homo sapiens, UniProt P22748); assay: Inhibition constant of anion against human carbonic anhydrase isozyme hCA IV
Sequence of Carbonic anhydrase 4 (P22748 whole entry): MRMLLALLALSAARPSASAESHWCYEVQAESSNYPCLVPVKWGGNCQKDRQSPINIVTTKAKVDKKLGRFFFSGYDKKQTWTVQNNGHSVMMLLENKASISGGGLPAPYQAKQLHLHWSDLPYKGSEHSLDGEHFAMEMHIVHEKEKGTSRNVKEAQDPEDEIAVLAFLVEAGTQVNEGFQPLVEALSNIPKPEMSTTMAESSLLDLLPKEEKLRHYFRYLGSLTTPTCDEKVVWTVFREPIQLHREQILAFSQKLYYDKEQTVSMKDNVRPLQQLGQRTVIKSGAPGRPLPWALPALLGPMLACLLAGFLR

[5] = molecular target: Carbonic anhydrase 9 (Homo sapiens, UniProt Q16790); assay: Inhibition constant of anion against human carbonic anhydrase isozyme hCA IX
[6] = molecular target: T1, Carbonic anhydrase 1; assay: Inhibition constant of anion against human carbonic anhydrase isozyme hCA I

T1 sequence (P00915 whole entry): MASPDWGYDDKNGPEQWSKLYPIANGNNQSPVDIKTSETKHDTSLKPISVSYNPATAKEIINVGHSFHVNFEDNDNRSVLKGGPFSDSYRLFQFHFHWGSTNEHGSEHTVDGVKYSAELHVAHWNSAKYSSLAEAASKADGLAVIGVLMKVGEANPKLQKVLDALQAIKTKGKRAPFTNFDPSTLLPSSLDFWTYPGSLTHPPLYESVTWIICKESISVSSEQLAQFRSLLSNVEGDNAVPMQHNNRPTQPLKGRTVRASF

Row | Compound | Ki [1] | Ki [2] [mM] | Ki [3] [mM] | Ki [4] [mM] | Ki [5] [mM] | Ki [6] [mM]
1 | O=C([O-])P(=O)([O-])[O-].[Na+].[Na+].[Na+] [FOSCARNET SODIUM] | Activator | 41.7 | 14.2 | 0.82 | 2.21 | 
2 | NC(=O)OP(=O)([O-])[O-].[Na+].[Na+] [CARBAMOYL PHOSPHATE; DI SODIUM] |  | 0.0085 | 0.31 | 0.0099 | 3.06 | 0.0094
3 | O=P([O-])([O-])O.[Na+].[Na+] [SODIUM PHOSPHATE, DIBASIC, ANHYDROUS] | Activator | 4.49 |  |  |  | 
4 | O=C([O-])[O-].[Na+].[Na+] [SODIUM CARBONATE] |  | 95 |  | 5.7 |  | 
5 | O=C[O-].[Na+] [SODIUM FORMATE] | Activator | 9.97 | 24 |  | 1.22 | 
6 | O=C([O-])O.[Na+] [SODIUM BICARBONATE] |  | 82 |  | 6.6 | 13 | 
7 | O=P([O-])(O)O.[Na+] [SODIUM PHOSPHATE, MONOBASIC] | Activator | 3.3 |  |  |  | 
